These results are taken from US7855288B2, “Pyrrolo [1,2-d] [1,2-4] triazine as inhibitors of c-Jun N terminal kinases (JNK) and p-38 kinases” (Novartis AG, priority 2004, dated 2010).

The target of one assay is human recombinant Jnk2 (Homo sapiens, UniProt P45984). The experiment in a line: JNK enzymatic assay (33P incorporation into peptide). Format: biochemical. The settings on record: JNK2 kinase IC50 class, Table 1. The protocol: In a final reaction volume of 20 μL, 5 nM human recombinant Jnk2 was incubated in the absence or presence of putative JNK inhibitors in increasing concentrations with 25 mM HEPES pH 7.5, 20 mM p-glycerophosphate, 10 mM MgCl2, 0.1 mM sodium orthovanadate, 0.005% Tween® 80, 10 uM [γ-^33P-ATP], 500 μM IPTTPITTTYFFFKKK peptide substrate and 2 mM DTT. The reaction was initiated by the addition of the [g-^33P-ATP]. After incubation for 20 minutes at 30° C., the aliquots were transferred onto P30/GF filtermats (PerkinElmer). Each filtermat washed four times in 100 ml 0.5% phosphoric acid, 0.5 mM pyrophosphate, then twice in 50 ml ethanol, dried and sealed into bag containing 5 ml of OptiPhase “SuperMix” liquid scintillation cocktail (PerkinElmer). Radioactivity incorporated into peptide was quantified on Trilux 1450 Microbeta plate-reader. IC50 values were calculated using SigmaPlot.
Sequence of human recombinant Jnk2 (P45984 whole entry): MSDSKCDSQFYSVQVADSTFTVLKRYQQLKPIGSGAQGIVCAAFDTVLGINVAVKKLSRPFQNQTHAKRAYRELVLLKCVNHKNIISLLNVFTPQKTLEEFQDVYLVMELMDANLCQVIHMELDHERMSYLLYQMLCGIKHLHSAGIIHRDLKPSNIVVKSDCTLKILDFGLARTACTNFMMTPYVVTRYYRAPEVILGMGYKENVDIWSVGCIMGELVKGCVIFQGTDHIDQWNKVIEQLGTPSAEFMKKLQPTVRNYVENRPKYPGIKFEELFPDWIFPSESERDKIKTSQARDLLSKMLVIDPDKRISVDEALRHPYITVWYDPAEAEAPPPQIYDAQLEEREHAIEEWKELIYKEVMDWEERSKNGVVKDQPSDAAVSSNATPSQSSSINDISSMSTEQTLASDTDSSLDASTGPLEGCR

The next assay addresses T1, p38α kinase (Homo sapiens, UniProt Q16539).
T1 construct: purchased Upstate
As to the kind of experiment: p38α assay (ADP release coupled to NADH oxidation). It is filed as biochemical. The conditions noted are these: p38 kinase IC50 class, Table 1; read-out: p38α inhibition. On the procedure: The p38α assay employed is based on measurement of ADP released in the reaction of interest through NADH oxidation obtained by coupling with pyruvate kinase and lactate dehydrogenase reactions. The assays were performed in 384-well UV-plates. The final volume was 25 uL prepared from the addition of 2.5 uL compound dissolved in 10% DMSO, 17.5 uL of assay buffer and 5 uL of ATP. Assay buffer contains the following reagents to give final concentration in the assay: 25 mM HEPES, 20 mM 2-glycerophosphate, pH 7.6, 10 mM MgCl2, 0.1 mM sodium orthovanadate, 0.5 mM phosphoenolpyruvate, 0.12 mM NADH, 3.1 mg/ml LDH, 6.67 mg/ml pyruvate kinase, 0.25 mM peptide substrate, 2 mM DTT, 0.005% Tween 80 and 20 nM p38α kinase from Upstate. Test compounds are preincubated with p38α kinase for 60 min and the reaction started by addition of ATP to 0.15 mM final concentration. Reaction rates were measured at 340 nm using SpectraMax plate-reading spectrophotometer for 10 min at 37° C. Inhibition data were analyzed by non-linear least-squares regression using SigmaPlot.

The structures appear in SMILES notation. Some results are limits rather than exact numbers.

T1 sequence (Q16539 whole entry): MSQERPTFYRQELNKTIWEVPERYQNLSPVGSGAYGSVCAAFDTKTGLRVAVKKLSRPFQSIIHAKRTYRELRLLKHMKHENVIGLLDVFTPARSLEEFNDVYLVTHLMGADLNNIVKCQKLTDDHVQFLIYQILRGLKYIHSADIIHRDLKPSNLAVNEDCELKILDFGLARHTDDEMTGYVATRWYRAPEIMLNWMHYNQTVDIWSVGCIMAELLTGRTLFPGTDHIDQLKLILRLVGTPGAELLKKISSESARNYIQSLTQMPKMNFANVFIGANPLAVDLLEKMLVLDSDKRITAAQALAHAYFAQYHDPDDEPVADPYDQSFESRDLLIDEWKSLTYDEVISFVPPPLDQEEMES

As for `CCOC(=O)c1cc2cnnc(Nc3cccc(C(=O)O)c3)n2c1C` [Compound 17], the IC50 on human recombinant Jnk2 was in the range of 1 to 10 µM.
`CCOC(=O)c1cc2cnnc(Nc3cc(C(=O)N4CCOCC4)ccc3C)n2c1C` [Compound 22]: the IC50 at human recombinant Jnk2 was more than 10 µM.
Take `CCOC(=O)c1cc2cnnc(Nc3cc(NC(=O)OC(C)C)ccc3C)n2c1C` [Compound 14]: the IC50 on p38α kinase and on human recombinant Jnk2 was 1 to 10 µM each time.
`CCOC(=O)c1cc2cnnc(Nc3cc(-c4ncco4)ccc3C)n2c1C` [Compound 13]: the IC50 at human recombinant Jnk2 lay in the range of 1 to 10 µM.
As to `CCOC(=O)c1cc2cnnc(Nc3cc(C(=O)Nc4ccccc4)ccc3C)n2c1C` [Compound 12], the IC50 on p38α kinase and at human recombinant Jnk2 was 1 to 10 µM in each case.
With `CCOC(=O)c1cc2cnnc(Nc3cc(C(=O)NC(C)C)ccc3C)n2c1C` [Compound 21], on human recombinant Jnk2, the IC50 is more than 10 µM.
As for `Cc1ccc(C(=O)NC2CC2)cc1Nc1nncc2cc(C(=O)NCc3ccccc3)c(C)n12` [Compound 4, 4-(5-Cyclopropylcarbamoyl-2-methyl-phenylamino)-6-methyl-pyrrolo[1,2-d][1,2,4]triazine-7-carboxylic acid benzylamide], the IC50 at p38α kinase and on human recombinant Jnk2 was less than 1 µM in each case.
`CCOC(=O)c1cc2cnnc(Nc3cc(NC(C)=O)ccc3C)n2c1C` [Compound 19]: the IC50 on p38α kinase is more than 10 µM; at human recombinant Jnk2, 1 to 10 µM.
`CCOC(=O)c1cc2cnnc(Nc3cc(C(=O)O)ccc3C)n2c1C` [Compound 18]: the IC50 at p38α kinase and at human recombinant Jnk2 was 1 to 10 µM in each case.
As to `CCOC(=O)c1cc2cnnc(Nc3cccc(C(=O)NC4CC4)c3)n2c1C` [Compound 11], the IC50 on p38α kinase and at human recombinant Jnk2 was 1 to 10 µM each time.
For `CCOC(=O)c1cc2cnnc(Nc3cc(C(=O)NCc4ccccc4)ccc3C)n2c1C` [Compound 20], the IC50 at p38α kinase and on human recombinant Jnk2 was 1 to 10 µM in each case.
Regarding `CCOC(=O)c1cc2cnnc(Nc3ccccc3)n2c1C` [Compound 15], the IC50 at p38α kinase and on human recombinant Jnk2 was 1 to 10 µM in each case.
For `CCOC(=O)c1cc2cnnc(Nc3ccccc3C)n2c1C` [Compound 16], the IC50 at p38α kinase and on human recombinant Jnk2 was 1 to 10 µM throughout.
As for `CCOC(=O)c1cc2cnnc(Nc3cc(C(=O)NC4CC4)ccc3OC)n2c1C` [Compound 1, 4-(5-Cyclopropylcarbamoyl-2-methoxy-phenylamino)-6-methyl-pyrrolo[1,2-d][1,2,4]triazine-7-carboxylic acid ethyl ester], the IC50 on p38α kinase and on human recombinant Jnk2 was 1 to 10 µM throughout.
In the case of `CCOC(=O)c1cc2cnnc(Nc3cc(C(=O)NC4CC4)ccc3C)n2c1C` [Compound 3, 4-(5-Cyclopropylcarbamoyl-2-methyl-phenylamino)-6-methyl-pyrrolo[1,2-d][1,2,4]triazine-7-carboxylic acid ethyl ester], the IC50 on p38α kinase and at human recombinant Jnk2 was less than 1 µM in each case.
With `Cc1ccc(C(=O)NC2CC2)cc1Nc1nncc2cc(C(=O)NC3CC3)c(C)n12` [Compound 8], the IC50 at p38α kinase was less than 1 µM; at human recombinant Jnk2 it was 1 to 10 µM.
For `CCOC(=O)c1cc2cnnc(Nc3cc(N)ccc3C)n2c1C` [Compound 24], the IC50 on p38α kinase and at human recombinant Jnk2 was more than 10 µM each time.
For the compound `CNC(=O)c1cc2cnnc(Nc3cc(C(=O)NC4CC4)ccc3C)n2c1C` [Compound 7], the IC50 on p38α kinase and on human recombinant Jnk2 was less than 1 µM throughout.
With `CCOC(=O)Nc1ccc(C)c(Nc2nncc3cc(C(=O)OCC)c(C)n23)c1` [Compound 5, 4-(5-Ethoxycarbonylamino-2-methyl-phenylamino)-6-methyl-pyrrolo[1,2-d][1,2,4]triazine-7-carboxylic acid ethyl ester], the IC50 on p38α kinase and on human recombinant Jnk2 was less than 1 µM throughout.
`CCOC(=O)c1cc2cnnc(Nc3ccc(Cl)cc3)n2c1C` [Compound 6]: the IC50 at p38α kinase and on human recombinant Jnk2 was 1 to 10 µM in each case.
For `CCOC(=O)c1cc2cnnc(Nc3cc(C(N)=O)ccc3C)n2c1C` [Compound 23], the IC50 on human recombinant Jnk2 was more than 10 µM.
On to `CCNC(=O)c1ccc(C)c(Nc2nncc3cc(C(=O)OCC)c(C)n23)c1` [Compound 9], for which the IC50 at p38α kinase and at human recombinant Jnk2 was 1 to 10 µM throughout.
Consider `CCOC(=O)c1cc2cnnc(Nc3ccc(C(=O)OC)cc3)n2c1C` [Compound 10], for which the IC50 at human recombinant Jnk2 was 1 to 10 µM.
For `CCOC(=O)c1cc2cnnc(Nc3cc(-c4nnc[nH]4)ccc3C)n2c1C` [Compound 2, 4-[2-Methyl-5-(4H-[1,2,4]triazol-3-yl)-phenylamino]-6-methyl-pyrrolo[1,2-d][1,2,4]triazine-7-carboxylic acid ethyl ester], at p38α kinase, the IC50 fell in the range of 1 to 10 µM.
